Assay results: patent publication US20030171408A1, “Therapeutic method of delivering a medicament to avoid irritating effects on membranes of user” (priority 2002, published 2003)

Tests used:
[1] = cited from earlier work
[2] = nasal, single doses of one mg, in man; cited from earlier work
[3] = metered nasal spray 0.4 mg nicotine equivalent
Experimental: A subject who was an addicted smoker was provided a metered nasal spray delivering 0.4 mg of nicotine equivalent in form of nicotine diacesulfamate. The nicotine salt was dissolved in water without any other additive ingredients.

[4] = powder nasal spray, encapsulated in starch microspheres
Experimental: A subject is administered nicotine by means of a powder nasal spray. The nicotine is prepared as the diacesulfamate and is encapsulated in starch microspheres.

[5] = oral inhaler, water solution
Experimental: A subject is administered nicotine by means of an oral inhaler. The nicotine is prepared as the diacesulfamate and is prepared in water solution.

In the case of `CC1=CC(=O)NS(=O)(=O)O1` [Acesulfamic acid, 6-Methyl-1,2,3-Oxathiazin-4(3H)1,2,2-dioxide H], the “solubility in alcohol and non-polar solvents” value ([1]; alcohol and non-polar solvents) is listed as “soluble” and the solubility in water ([1]; water) is listed as “only sparingly soluble”.

For `CN1CCCC1c1cccnc1` (stereo not shown) [nicotine], the “time to maximum concentration” value [2] is given as ≤ 10 min.

With `CC1=CC(=O)NS(=O)(=O)O1.CC1=CC(=O)NS(=O)(=O)O1.CN1CCC[C@H]1c1cccnc1` [nicotine diacesulfamate] the “relief from desire to smoke” value ([3]; addicted smoker, dissolved in water, once in each nostril) was “relief from desire to smoke within two minutes”, the “taste and feelings in the nostril” value ([3]; in water) was “not unpleasant, but distinctive” and the “irritation to nasal mucosa, throat or lungs” value ([3]; in water, once in each nostril) was “No report was made of any irritation to nasal mucosa, nor to the throat or lungs”. The “burning feeling on administration” value [4] was “No burning feeling is noted”, the “relief from cravings to smoke” value [4] was “relief from the cravings to smoke soon after use” and the “burning feeling in buccal area, throat or lungs” value [5] was “No burning feeling is noted”. For the same molecule, the “relief from craving to smoke” value [5] was “relief from craving to smoke soon after use”.
